From US20260078130A1, “NAMPT MODULATORS, PREPARATIONS, AND USES THEREOF” (SIRONAX LTD., priority 2022, published 2026)

What was measured:
[1] = tested on: endogenous NAMPT in U2OS cells; test: Cellular NAD+ modulation assay (NAD/NADH-Glo, U2OS cells); format: cell-based; details: Homo sapiens, 24 hours incubation, cellular NAD+; for maximal fold induction: read-out: Cellular Emax
Method in brief: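 Endogenous NAMPT stimulation in U2OS cells treated with compound dilution series for 24 h at 37 °C. Cells lysed with DTAB base, acid-treated 15 min at 60 °C, neutralized, NAD+ read by NAD/NADH-Glo luminescence after 40 min at room temperature. EC50 and Emax (fold over DMSO) derived.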

[2] = target: T1, human enzyme NAMPT (full length) (Homo sapiens, UniProt P43490); test: NMN fluorescence biochemical assay (stimulation of NMN synthesis by NAMPT); details: for EC50: NMN fluorescence assay, purified human NAMPT 100 nM, concentration giving half-maximal activation, read-out: Enzymatic EC50; for Enzymatic Emax: fold change of maximal activation compared to DMSO
T1 construct: human enzyme NAMPT (full length)
Method in brief: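 Full-length human NAMPT (100 nM) was preincubated 15 min at 37 °C with compound in 50 mM Tris-HCl pH 7.5, 10 mM MgCl2, 2 mM DTT, then reacted 1 h at 37 °C with 50 μM NAM, 100 μM PRPP, 4 mM ATP (stated solution concentrations). NMN was derivatised with acetophenone/KOH then formic acid and read at Ex/Em 382/445 nm; EC50 and Emax (fold over DMSO) reported.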

T1 sequence (P43490 whole entry): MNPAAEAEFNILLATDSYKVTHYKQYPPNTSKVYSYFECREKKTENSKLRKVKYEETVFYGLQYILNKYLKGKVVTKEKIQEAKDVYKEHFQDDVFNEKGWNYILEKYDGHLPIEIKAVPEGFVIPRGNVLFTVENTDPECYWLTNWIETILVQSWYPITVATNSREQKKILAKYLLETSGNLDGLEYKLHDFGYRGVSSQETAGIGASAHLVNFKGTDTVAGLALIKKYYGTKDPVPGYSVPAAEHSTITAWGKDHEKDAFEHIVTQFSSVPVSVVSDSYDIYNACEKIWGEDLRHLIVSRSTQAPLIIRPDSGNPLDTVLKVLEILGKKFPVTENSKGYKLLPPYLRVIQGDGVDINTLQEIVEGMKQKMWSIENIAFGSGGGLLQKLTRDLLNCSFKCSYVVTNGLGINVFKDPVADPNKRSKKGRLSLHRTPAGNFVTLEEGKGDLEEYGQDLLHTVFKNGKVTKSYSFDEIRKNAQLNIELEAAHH

Row | SMILES | EC50 [1] [nM] | maximal fold induction [1] | EC50 [2] [nM] | Enzymatic Emax [2]
1 | CSc1ccc(CN2C(=O)c3ccccc3C2Cc2c(Cl)cnn2C)cc1 (stereo not shown) [Compound 542, 3-((4-chloro-1-methyl-1H-pyrazol-5-yl)methyl)-2-(4-(methylthio)benzyl)isoindolin-1-one] | 500 to 5000 | 1.2 to 1.5 | ≥ 5000 | B (3≥B>2)
2 | COc1ccc(CN2C(=O)c3ccccc3C2Cc2c(Cl)cnn2C)nc1F (stereo not shown) [Compound 543, 3-((4-chloro-1-methyl-1H-pyrazol-5-yl)methyl)-2-((6-fluoro-5-methoxypyridin-2-yl)methyl)isoindolin-1-one] | 500 to 5000 | > 1.5 | 500 to 5000 | B (3≥B>2)
3 | COc1ccc(CN2C(=O)c3ccccc3C2Cc2c(Cl)cnn2C)cc1Cl (stereo not shown) [Compound 544, 3-((4-chloro-1-methyl-1H-pyrazol-5-yl)methyl)-2-(3-chloro-4-methoxybenzyl)isoindolin-1-one] | 500 to 5000 | 1.2 to 1.5 | 500 to 5000 | C (2≥C)
4 | Cn1nc(F)c(Cl)c1CC1c2ccccc2C(=O)N1CC1CC2(CNC(=O)O2)C1 (stereo not shown) [Compound 547, 2-((1-((4-chloro-3-fluoro-1-methyl-1H-pyrazol-5-yl)methyl)-3-oxoisoindolin-2-yl)methyl)-5-oxa-7-azaspiro[3.4]octan-6-one] | < 500 | > 1.5 | 500 to 5000 | A (A>3)
5 | CN1C[C@]2(C[C@H](CN3C(=O)c4ccccc4[C@@H]3Cc3c(Cl)cnn3C)C2)OC1=O [Compound 551, (2s,4R)-2-(((S)-1-((4-chloro-1-methyl-1H-pyrazol-5-yl)methyl)-3-oxoisoindolin-2-yl)methyl)-7-methyl-5-oxa-7-azaspiro[3.4]octan-6-one] | < 500 | > 1.5 | 500 to 5000 | B (3≥B>2)
6 | Cn1c(=O)oc2cc(CN3C(=O)c4ccccc4C3Cc3c(Br)cccc3C#N)ccc21 (stereo not shown) [Compound 552, 3-bromo-2-((2-((3-methyl-2-oxo-2,3-dihydrobenzo[d]oxazol-6-yl)methyl)-3-oxoisoindolin-1-yl)methyl)benzonitrile] | < 500 | > 1.5 | < 500 | A (A>3)
7 | COc1cnc(CN2C(=O)c3ccccc3C2Cc2c(Cl)cnn2C)cc1F (stereo not shown) [Compound 555, 3-((4-chloro-1-methyl-1H-pyrazol-5-yl)methyl)-2-((4-fluoro-5-methoxypyridin-2-yl)methyl)isoindolin-1-one] | < 500 | > 1.5 | ≥ 5000 | B (3≥B>2)
8 | Cn1ncc(Cl)c1CC1c2ccccc2C(=O)N1Cc1ccc2c(c1)nnn2C (stereo not shown) [Compound 557, 3-((4-chloro-1-methyl-1H-pyrazol-5-yl)methyl)-2-((1-methyl-1H-benzo[d][1,2,3]triazol-5-yl)methyl)isoindolin-1-one] | < 500 | > 1.5 | 500 to 5000 | A (A>3)
9 | Cn1ncc(Cl)c1CC1c2ccccc2C(=O)N1CC1CC(C(N)=O)C1 (stereo not shown) [Compound 562, 3-((1-((4-chloro-1-methyl-1H-pyrazol-5-yl)methyl)-3-oxoisoindolin-2-yl)methyl)cyclobutane-1-carboxamide] | < 500 | 1.2 to 1.5 | 500 to 5000 | B (3≥B>2)
10 | Cn1ncc(Cl)c1CC1c2cc(F)ccc2S(=O)(=O)N1CC1CC2(CNC(=O)O2)C1 (stereo not shown) [Compound 563, 2-((3-((4-chloro-1-methyl-1H-pyrazol-5-yl)methyl)-5-fluoro-1,1-dioxidobenzo[d]isothiazol-2(3H)-yl)methyl)-5-oxa-7-azaspiro[3.4]octan-6-one] | < 500 | > 1.5 | 500 to 5000 | A (A>3)
11 | Cn1ncc(Cl)c1CC1c2ccccc2C(C)(C)N1CC1CC2(CNC(=O)O2)C1 (stereo not shown) [Compound 565, 2-((3-((4-chloro-1-methyl-1H-pyrazol-5-yl)methyl)-1,1-dimethylisoindolin-2-yl)methyl)-5-oxa-7-azaspiro[3.4]octan-6-one] | < 500 | > 1.5 | < 500 | A (A>3)
12 | COc1ccc(CN2C(=O)c3ccccc3C2Cc2c(Cl)c(Cl)nn2C)cc1 (stereo not shown) [Compound 566, 3-((3,4-dichloro-1-methyl-1H-pyrazol-5-yl)methyl)-2-(4-methoxybenzyl)isoindolin-1-one] | < 500 | > 1.5 | 500 to 5000 | A (A>3)
13 | COc1ccc(CN2C(=O)c3ccccc3C2Cc2c(C)ccnc2C#N)cc1 (stereo not shown) [Compound 567, 3-((2-(4-methoxybenzyl)-3-oxoisoindolin-1-yl)methyl)-4-methylpicolinonitrile] | < 500 | > 1.5 | < 500 | B (3≥B>2)
14 | Cn1ncc(Cl)c1CC1c2ccccc2C(=O)N1CC1CC2(CNC(=O)S2)C1 (stereo not shown) [Compound 568, 2-((1-((4-chloro-1-methyl-1H-pyrazol-5-yl)methyl)-3-oxoisoindolin-2-yl)methyl)-5-thia-7-azaspiro[3.4]octan-6-one] | < 500 | 1.2 to 1.5 | < 500 | B (3≥B>2)
15 | Cn1ncc(Cl)c1CC1c2ccccc2C(=O)N1Cc1ccc(Cl)cc1 (stereo not shown) [Compound 573, 3-((4-chloro-1-methyl-1H-pyrazol-5-yl)methyl)-2-(4-chlorobenzyl)isoindolin-1-one] | 5000 to 50000 | ≤ 1.2 | ≥ 5000 | C (2≥C)
16 | COc1ccc(CN2C(=O)c3ccccc3C2Cc2c(Cl)cnn2C)cn1 (stereo not shown) [Compound 574, 3-((4-chloro-1-methyl-1H-pyrazol-5-yl)methyl)-2-((6-methoxypyridin-3-yl)methyl)isoindolin-1-one] | 500 to 5000 | > 1.5 | 500 to 5000 | B (3≥B>2)
17 | Cn1ncc(Cl)c1CC1c2ccccc2C(=O)N1Cc1ccc(O)nc1 (stereo not shown) [Compound 578, 3-[(4-chloro-2-methyl-pyrazol-3-yl)methyl]-2-[(6-hydroxy-3-pyridyl)methyl]isoindolin-1-one] | 500 to 5000 | 1.2 to 1.5 | ≥ 5000 | B (3≥B>2)
18 | Cn1ncc(Cl)c1CC1c2cc(Cl)cc(F)c2C2(CC2)N1CC1CC2(CNC(=O)O2)C1 (stereo not shown) [Compound 580, 2-((5′-chloro-3′-((4-chloro-1-methyl-1H-pyrazol-5-yl)methyl)-7′-fluorospiro[cyclopropane-1,1′-isoindolin]-2′-yl)methyl)-5-oxa-7-azaspiro[3.4]octan-6-one] | 500 to 5000 | 1.2 to 1.5 | 500 to 5000 | A (A>3)
19 | COc1ccc(CN2C(=O)c3c(F)cc(Cl)cc3C2Cc2c(Cl)cnn2C)cc1 (stereo not shown) [Compound 581, 5-chloro-3-((4-chloro-1-methyl-1H-pyrazol-5-yl)methyl)-7-fluoro-2-(4-methoxybenzyl)isoindolin-1-one] | 500 to 5000 | 1.2 to 1.5 | 500 to 5000 | A (A>3)
20 | Cn1ncc(Cl)c1CC1c2ccccc2C(=O)N1CC1CC1C(N)=O (stereo not shown) [Compound 582, 2-((1-((4-chloro-1-methyl-1H-pyrazol-5-yl)methyl)-3-oxoisoindolin-2-yl)methyl)cyclopropane-1-carboxamide] | 5000 to 50000 | 1.2 to 1.5 | ≥ 5000 | C (2≥C)
21 | [2H]C([2H])([2H])Oc1ccc(CN2C(=O)c3ccccc3C2Cc2c(C)ccnc2C#N)cc1 (stereo not shown) [Compound 583, 3-((2-(4-(methoxy-d3)benzyl)-3-oxoisoindolin-1-yl)methyl)-4-methylpicolinonitrile] | < 500 | > 1.5 | 500 to 5000 | A (A>3)
22 | Cn1ncc(Cl)c1CC1c2ccccc2C(=O)N1Cc1ccc2c(c1)ncn2C (stereo not shown) [Compound 585, 3-((4-chloro-1-methyl-1H-pyrazol-5-yl)methyl)-2-((1-methyl-1H-benzo[d]imidazol-5-yl)methyl)isoindolin-1-one] | 500 to 5000 | > 1.5 | 500 to 5000 | B (3≥B>2)
23 | COc1ccc(CN2C(=O)c3ccccc3C2Cc2c(C)ccnc2C#N)cn1 (stereo not shown) [Compound 588, 3-((2-((6-methoxypyridin-3-yl)methyl)-3-oxoisoindolin-1-yl)methyl)-4-methylpicolinonitrile] | 500 to 5000 | > 1.5 | ≥ 5000 | B (3≥B>2)
24 | COc1ccc(CN2C(=O)c3ccccc3C2Cc2c(Cl)ccc(=O)n2C)cc1 (stereo not shown) [Compound 589, 3-((3-chloro-1-methyl-6-oxo-1,6-dihydropyridin-2-yl)methyl)-2-(4-methoxybenzyl)isoindolin-1-one] | < 500 | > 1.5 | 500 to 5000 | A (A>3)
25 | COc1ccc(CN2C(=O)c3ccccc3C2Cc2c(C#N)ccnc2C#N)cc1 (stereo not shown) [Compound 590, 3-((2-(4-methoxybenzyl)-3-oxoisoindolin-1-yl)methyl)pyridine-2,4-dicarbonitrile] | 500 to 5000 | 1.2 to 1.5 | 500 to 5000 | B (3≥B>2)
